Assay [1] concerns PGE2. The conditions noted are these: 10 μM perfusion 60 min then saline 30 min; bladders harvested at 90 min.
The test system of assay [2] is Isolated bladder smooth muscle strips. Put plainly: Bladder strip contractility (bradykinin-induced contraction), Examples I and II. It is filed as cell-based, rat.
Assay [3] deals with overactive bladder function. Put plainly: Acetic-acid overactive bladder model, intravesical local delivery, cystometry, Example V. As to conditions: 0.2% acetic acid.
Protocol: In this model, acute inflammation of the bladder is produced by using 0.2% acetic acid in saline as the bladder perfusion fluid and cystometry under anesthesia is performed after a recovery period from the surgical procedure.
The animals were anesthesized and bladder catheters were surgically implanted to allow irrigation of the test agents. The following cystometry parameters were monitored: intercontraction interval (ICI), trigger pressure (TP), micturition pressure (MP) and micturition volume (MV) using a Med Associates Cystometry Station and software program. […] Following the saline period, the rat bladder was infused with test agent in saline containing 0.2% acetic acid for 20 min followed by the collection of 7 representative ICI intervals for analysis.
Five to seven animals were normally tested in each group. Acidified saline served as the control. All infusion solutions were prepared fresh on the day of the experiment before use.
For assay [4], the system named is urinary bladder. Put plainly: In vivo rat cystometry model, 0.2% acetic acid infusion, intravenous drug. As to conditions: 10 mg/kg i.v. The method, then: The rats were anesthetized with urethane at 1.2 g/kg i.p. in 5 ml/kg. A polyethylene catheter (PE50) was implanted into the bladder for saline or acetic acid infusion through a 3-way stopcock. A pressure transducer was connected for measurements of intravesical pressure. Warm (37° C.) saline was infused into the bladder at a constant rate of […] (1 ml/hour) until cystometry became stable (no less than 60 minutes). Thereafter, 0.2% acetic acid was infused into the urinary bladder. Aspirin (10 mg/kg i.v.) and vehicle were administered intravenously via a PE-10 catheter in the femoral vein at 5 minutes after infusion of acetic acid was started and at the end of first micturition cycle. Dunnett's test was applied for comparison between the time before and after test substance or vehicle treatment. To ascertain differences between the test substance and the vehicle control group, an unpaired Student's t test was used. Differences are considered significant at […].

Each structure is given as a SMILES string.

Consider `CC(C(=O)O)c1cccc(C(=O)c2ccccc2)c1` (stereo not drawn) [Ketoprofen, 3-benzoyl-α-methylbenzeneacetic acid], for which the “bladder tissue PGE2 levels” value in assay [1] stood at 83±22 pg/mg protein. Moreover, in assay [2] (ketoprofen 0.25-10 μM), the “effect on maximal tension” value was “no apparent effect”.

As for `COC(=O)C1=C(C)NC(C)=C(C(=O)OC)C1c1ccccc1[N+](=O)[O-]` [Nifedipine, 1,4-dihydro-2,6-dimethyl-4-(2-nitrophenyl)-3,5-pyridinedicarboxylic acid dimethyl ester], the “concentration of maximal effects on shortening of the ICI” value in assay [3] (in irrigation buffer, female rats) is around 1 µM. Also, in assay [3] (nifedipine above 1 μM), the “ICI plateau at higher concentrations, of baseline” value is “approximately 75%”. The “type of antagonism upon bradykinin-induced contractile responses” value in assay [2] (single agents, 10 min incubation) is on record as “noncompetitive”.

For the compound `CC(=O)Oc1ccccc1C(=O)O` [aspirin], in assay [4], the bladder capacity entry was “parallel changes”, the “effect on acetic acid induced reduction in the intercontraction interval (ICI)” value is listed as “gradual time-dependent inhibition”, the micturition pressure entry is listed as “not affected” and the threshold pressure entry was “not affected”.
